Experiments:
NALM-60 cells = assay: Cytotoxicity (CC50), NALM-60 cells; assay type: cell-based, human; conditions: for CC50: Homo sapiens, 24 h incubation; for SI NALM-60: average CC50 of non-malignant cells / CC50 NALM-60
Procedure: (§1) In brief, the compounds were incubated for 24 h with the neoplasms, using DMEM and RPMI media. Three independent experiments were carried out.

HL-60 cells = assay: Cytotoxicity (CC50), HL-60 cells; assay type: cell-based, human; conditions: for CC50: Homo sapiens, HL-60, 24 h incubation; for SI HL-60: average CC50 of non-malignant cells / CC50 HL-60
Procedure: as §1

RAJI cells = assay: Cytotoxicity (CC50), Raji cells; assay type: cell-based, human; conditions: for CC50: Homo sapiens, Raji, 24 h incubation; for SI RAJI: average CC50 of non-malignant cells / CC50 RAJI
Procedure: as §1

HCT 116 cells = assay: Cytotoxicity assay, HCT 116 colon cancer cells; assay type: cell-based, human; conditions: for inhibition at 10 µM / inhibition at 100 µM: read-out: percentage inhibition of HCT 116 cells
Description: (§2) Evaluation of the cytotoxic properties of the compounds presented in Table 1, Table 2, Table 3 and Table 4 was undertaken using the procedure outlined in [7]. In brief, the HCT 116 cells were obtained from the ATCC and cultured in McCoy’s 5A medium. The CRL 1790 cells were obtained from the ATCC and cultured in Minimum Essential Medium. The MCF-7 and MDA-MBA-231 cells were obtained from the Saskatchewan Cancer Agency and cultured in DMEM. In each assay the culture medium was supplemented with 10% fetal bovine serum and 1% penicillin–streptomycin antibiotics. The time of the bioassays was 48 h, unless indicated otherwise. All determinations were carried out in triplicate on three different occasions.

Ramos cells [1] = assay: Mitochondrial membrane potential of Ramos cells (JC-1 dye, flow cytometry); assay type: cell-based, human; conditions: 5 h, Figure 3
Procedure: The effect of 1l on the mitochondrial membrane potential of Ramos cells was determined using the procedure laid out in [9]. In brief, the cells were treated with 1l for 5 h, stained with the JC-1 dye, and then the results were analyzed by flow cytometry.
The MMP of Ramos cells was determined using the JC-1 dye. In this assay, JC-1 enters the energized mitochondria in healthy cells and forms aggregates to produce red fluorescence at 590 nm. However, cells undergoing apoptotic cell death have a low mitochondrial membrane potential.

Ramos cells [2] = assay: Cytotoxicity (CC50), Ramos cells; assay type: cell-based, human; conditions: for CC50: Homo sapiens, Ramos, 24 h incubation; for SI Ramos: average CC50 of non-malignant cells / CC50 Ramos
Procedure: as §1

[3] = Cytotoxicity (CC50), non-malignant Hs27 foreskin cells; assay type: cell-based; conditions: human, 24 h incubation
Procedure: as §1

MDA-MB-231 cells = assay: Cytotoxicity assay, MDA-MB-231 breast cancer cells; assay type: cell-based, human; conditions: Homo sapiens, MDA-MB-231, 48 h, read-out: percentage inhibition of MDA-MB-231 cells
Description: as §2

[4] = Cytotoxicity (CC50), average over non-malignant cells; assay type: cell-based; conditions: human, Hs27 and MCF10A cells (non-malignant), average of both
Procedure: as §1

CRL 1790 cells = assay: Cytotoxicity assay, non-malignant CRL 1790 colon cells; assay type: cell-based; conditions: Homo sapiens, 48 h, Table 2, read-out: Non-Malignant CRL 1790 Cells IC50
Description: as §2

[5] = tested on: Ramos, NALM-60, CEM, HL-60, JURKAT, RAJI cells; assay: Cytotoxicity (CC50), average over six leukemia/lymphoma cell lines; assay type: cell-based, human; conditions: for CC50: Homo sapiens, average over six neoplastic cell lines
Procedure: as §1

[6] = Cytotoxicity (CC50), non-malignant MCF-10A breast cells; assay type: cell-based; conditions: human, MCF-10A cells (non-malignant breast cells); 24 h incubation; read-out: Non-Malignant Cells CC50, MCF10A
Procedure: as §1

MCF-7 cells = assay: Cytotoxicity assay, MCF-7 breast cancer cells; assay type: cell-based, human; conditions: for inhibition at 10 µM / inhibition at 100 µM: read-out: percentage inhibition of MCF-7 cells
Description: as §2

CEM cells = assay: Cytotoxicity (CC50), CEM cells; assay type: cell-based, human; conditions: for CC50: Homo sapiens, CCRF-CEM, 24 h incubation; for SI CEM: average CC50 of non-malignant cells / CC50 CEM
Procedure: as §1

JURKAT cells = assay: Cytotoxicity (CC50), Jurkat cells; assay type: cell-based, human; conditions: for CC50: Homo sapiens, Jurkat, 24 h incubation; for SI JURKAT: average CC50 of non-malignant cells / CC50 JURKAT
Procedure: as §1

SMILES	CC50 (NALM-60 cells) [µM]	SI NALM-60 (NALM-60 cells)	CC50 (HL-60 cells) [µM]	SI HL-60 (HL-60 cells)	CC50 (RAJI cells) [µM]	SI RAJI (RAJI cells)	inhibition at 10 µM (HCT 116 cells; Homo sapiens, HCT-116, 48 h) [%]	inhibition at 100 µM (HCT 116 cells; Homo sapiens, HCT-116, 48 h) [%]	CC50 (Ramos cells [2]) [µM]	SI Ramos (Ramos cells [2])	CC50 at 24 h [3] [µM]	inhibition at 10 µM (MDA-MB-231 cells) [%]	inhibition at 100 µM (MDA-MB-231 cells) [%]	CC50 at 24 h [4] [µM]	IC50 (CRL 1790 cells) [µM]	Avg SI, neoplastic cells [5]	CC50 [5] [µM]	CC50 at 24 h [6] [µM]	inhibition at 10 µM (MCF-7 cells; Homo sapiens, MCF7, 48 h) [%]	inhibition at 100 µM (MCF-7 cells; Homo sapiens, MCF7, 48 h) [%]	other results
C=CC(=O)NNC(=O)c1ccc(OC)cc1 [1l, N^2-Acryloyl-4-methoxylbenzohydrazide]	3.25 ± 0.99	5.51	1.86 ± 0.66	9.62	2.93 ± 0.43	6.11	8.62 ± 2.79	85.1 ± 3.28	0.19 ± 0.01	94.2	17.7 ± 0.62	-4.95 ± 3.12	47.7 ± 3.19	17.9	> 100	22.7	1.97	18.1 ± 0.84	60.6 ± 3.29	99.4 ± 2.34	effect on mitochondrial membrane potential of Ramos cells (Ramos cells [1]; CC50 concentration of 1l, vs control): significantly depolarized; effect on mitochondrial membrane potential of Ramos cells (Ramos cells [1]; doubled (2 x CC50) concentration of 1l): approximately twofold increase in the mitochondrial depolarization; IC50 (MCF-7 cells; Homo sapiens, MCF7, Table 2, 48 h, read-out: Neoplastic Cells IC50, MCF-7): 3.18 ± 0.53 µM; SI (selectivity index) (MCF-7 cells; IC50 CRL 1790 / IC50 MCF-7, Table 2): >31.5; CC50 (CEM cells): 1.42 ± 0.25 µM; SI CEM (CEM cells): 12.6; CC50 (JURKAT cells): 2.17 ± 0.45 µM; SI JURKAT (JURKAT cells): 8.25
C=CC(=O)NNC(=O)c1ccccc1 [1a, N^2-Acryloylbenzohydrazide]	2.74 ± 0.59	4.71	3.32 ± 0.26	3.89	5.18 ± 0.35	2.49	10.6 ± 1.7	94.1 ± 1.44	0.19 ± 0.01	67.9	12.1 ± 0.91	-12.2 ± 1.5	52.1 ± 2.04	12.9	> 100	16.1	2.64	13.7 ± 1.1	5.47 ± 3.52	51.1 ± 2.87	melting point: 177 to 179 °C; IC50 (HCT 116 cells; Homo sapiens, HCT-116, Table 2, 48 h, read-out: Neoplastic Cells IC50, HCT 116): 36.9 ± 2.84 µM; SI (selectivity index) (HCT 116 cells; IC50 CRL 1790 / IC50 HCT 116, Table 2): >2.70; CC50 (CEM cells): 0.91 ± 0.48 µM; SI CEM (CEM cells): 14.2; CC50 (JURKAT cells): 3.52 ± 0.36 µM; SI JURKAT (JURKAT cells): 3.65

From paper PMC8226474, “Design, Syntheses, and Bioevaluations of Some Novel N^2-Acryloylbenzohydrazides as Chemostimulants and Cytotoxic Agents” (Medicines, 2021)
